Measured values taken from patent US10597388B2, “Pyridazinone herbicides” (FMC CORPORATION, priority 2014, dated 2020).

Assays:
Test in all cases: Test D controlled growth environment herbicide test, pre- and postemergence
Type in all cases: in vivo
[1] = system: windgrass (Apera spica-venti)
How it was run: (§1)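 Pre-emergence: seeds sown in silt loam soil were sprayed with compound in a non-phytotoxic solvent mix containing surfactant. Post-emergence: plants at 2 to 18 cm (1- to 4-leaf stage) in peat moss/vermiculite medium got the same formulation. Visual 0–100 rating versus controls after 14 to 21 d.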

[2] = system: canarygrass (Phalaris minor)
How it was run: as §1

[3] = system: barley, winter (winter barley, Hordeum vulgare)
How it was run: as §1

[4] = system: Russian thistle (Salsola kali)
How it was run: as §1

[5] = system: buckwheat, wild (wild buckwheat, Polygonum convolvulus)
How it was run: as §1

[6] = system: oat, wild (wild oat, Avena fatua)
How it was run: as §1

[7] = system: pigweed (Amaranthus retroflexus)
How it was run: as §1

[8] = system: chickweed (common chickweed, Stellaria media)
How it was run: as §1

[9] = system: galium (catchweed bedstraw, Galium aparine)
How it was run: as §1

[10] = system: bromegrass, downy (downy bromegrass, Bromus tectorum)
How it was run: as §1

[11] = system: radish, wild (wild radish, Raphanus raphanistrum)
How it was run: as §1

kochia (Kochia scoparia) = system: kochia (Kochia scoparia)
How it was run: as §1

[12] = system: field violet (Viola arvensis)
How it was run: as §1

[13] = Postemergence, 31 g ai/ha, scale 0 to 100 (0 no effect, 100 complete control)
[14] = Postemergence, 125 g ai/ha, visual rating on scale 0 (no effect) to 100 (complete control), 14 to 21 d
[15] = Postemergence, 250 g ai/ha, scale 0 to 100 (0 no effect, 100 complete control)
[16] = Preemergence, 125 g ai/ha, scale 0 to 100 (0 no effect, 100 complete control)
[17] = Preemergence, 250 g ai/ha, scale 0 to 100 (0 no effect, 100 complete control)
[18] = postemergence, 62 g ai/ha, scale 0 to 100, 0 no effect, 100 complete control
[19] = Preemergence, 62 g ai/ha, scale 0 to 100 (0 no effect, 100 complete control)

SMILES: CCOC(=O)Oc1c(C)nn(C)c(=O)c1-c1c(C)sc2ccc(C)cc12 [Compound 82]
- Windgrass plant response rating [1, 13]: 70
- Plant response rating, Windgrass [1, 14]: 80
- Plant response rating, Windgrass [1, 15]: 85
- Plant response rating (scale of 0 to 100), Windgrass ([1]; Preemergence, 31 g ai/ha): 75
- Plant response rating (scale of 0 to 100), Windgrass ([1]; Preemergence, 62 g ai/ha): 80
- Plant response rating, Windgrass [1, 16]: 100
- Plant response rating, Windgrass [1, 17]: 100
- Plant response rating, Windgrass [1, 18]: 75
- Canarygrass plant response rating [2, 13]: 50
- Plant response rating, Canarygrass [2, 14]: 75
- Plant response rating, Canarygrass [2, 15]: 85
- Plant response rating (scale of 0 to 100), Canarygrass ([2]; Preemergence, 31 g ai/ha): 75
- Plant response rating (scale of 0 to 100), Canarygrass ([2]; Preemergence, 62 g ai/ha): 85
- Plant response rating, Canarygrass [2, 16]: 90
- Plant response rating, Canarygrass [2, 17]: 95
- Plant response rating, Canarygrass [2, 18]: 55
- Barley, Winter plant response rating [3, 13]: 0
- Plant response rating, Barley, Winter [3, 14]: 0
- Plant response rating, Barley, Winter [3, 15]: 0
- Plant response rating (scale of 0 to 100), Barley, Winter ([3]; Preemergence, 31 g ai/ha): 0
- Plant response rating, Barley, Winter [3, 19]: 0
- Plant response rating, Barley, Winter [3, 16]: 5
- Plant response rating, Barley, Winter [3, 17]: 25
- Plant response rating, Barley, Winter [3, 18]: 0
- Russian Thistle plant response rating [4, 13]: 65
- Plant response rating, Russian Thistle [4, 14]: 75
- Plant response rating, Russian Thistle [4, 15]: 85
- Plant response rating (scale of 0 to 100), Russian Thistle ([4]; Preemergence, 31 g ai/ha): 10
- Plant response rating (scale of 0 to 100), Russian Thistle ([4]; Preemergence, 62 g ai/ha): 15
- Plant response rating, Russian Thistle [4, 16]: 65
- Plant response rating, Russian Thistle [4, 17]: 65
- Plant response rating, Russian Thistle [4, 18]: 75
- Buckwheat, Wild plant response rating [5, 13]: 85
- Plant response rating, Buckwheat, Wild [5, 14]: 100
- Plant response rating, Buckwheat, Wild [5, 15]: 100
- Plant response rating (scale of 0 to 100), Buckwheat, Wild ([5]; Preemergence, 31 g ai/ha): 35
- Plant response rating, Buckwheat, Wild [5, 19]: 0
- Plant response rating, Buckwheat, Wild [5, 16]: 15
- Plant response rating, Buckwheat, Wild [5, 17]: 0
- Plant response rating, Buckwheat, Wild [5, 18]: 100
- Oat, Wild plant response rating [6, 13]: 90
- Plant response rating, Oat, Wild [6, 14]: 95
- Plant response rating, Oat, Wild [6, 15]: 95
- Plant response rating (scale of 0 to 100), Oat, Wild ([6]; Preemergence, 31 g ai/ha): 80
- Plant response rating (scale of 0 to 100), Oat, Wild ([6]; Preemergence, 62 g ai/ha): 85
- Plant response rating, Oat, Wild [6, 16]: 95
- Plant response rating, Oat, Wild [6, 17]: 95
- Plant response rating, Oat, Wild [6, 18]: 90
- Pigweed plant response rating [7, 13]: 90
- Plant response rating, Pigweed [7, 14]: 100
- Plant response rating, Pigweed [7, 15]: 100
- Plant response rating (scale of 0 to 100), Pigweed ([7]; Preemergence, 31 g ai/ha): 100
- Plant response rating (scale of 0 to 100), Pigweed ([7]; Preemergence, 62 g ai/ha): 100
- Plant response rating, Pigweed [7, 16]: 100
- Plant response rating, Pigweed [7, 17]: 100
- Plant response rating, Pigweed [7, 18]: 100
- Chickweed plant response rating [8, 13]: 80
- Plant response rating, Chickweed [8, 14]: 95
- Plant response rating, Chickweed [8, 15]: 100
- Plant response rating (scale of 0 to 100), Chickweed ([8]; Preemergence, 31 g ai/ha): 100
- Plant response rating (scale of 0 to 100), Chickweed ([8]; Preemergence, 62 g ai/ha): 100
- Plant response rating, Chickweed [8, 16]: 100
- Plant response rating, Chickweed [8, 17]: 100
- Plant response rating, Chickweed [8, 18]: 90
- Galium plant response rating [9, 13]: 90
- Plant response rating, Galium [9, 14]: 100
- Plant response rating, Galium [9, 15]: 100
- Plant response rating (scale of 0 to 100), Galium ([9]; Preemergence, 31 g ai/ha): 60
- Plant response rating (scale of 0 to 100), Galium ([9]; Preemergence, 62 g ai/ha): 60
- Plant response rating, Galium [9, 16]: 80
- Plant response rating, Galium [9, 17]: 85
- Plant response rating, Galium [9, 18]: 100
- Bromegrass, Downy plant response rating [10, 13]: 55
- Plant response rating, Bromegrass, Downy [10, 14]: 60
- Plant response rating, Bromegrass, Downy [10, 15]: 60
- Plant response rating (scale of 0 to 100), Bromegrass, Downy ([10]; Preemergence, 31 g ai/ha): 45
- Plant response rating, Bromegrass, Downy [10, 19]: 65
- Plant response rating, Bromegrass, Downy [10, 16]: 80
- Plant response rating, Bromegrass, Downy [10, 17]: 85
- Plant response rating, Bromegrass, Downy [10, 18]: 45
- Radish, Wild plant response rating [11, 13]: 25
- Plant response rating, Radish, Wild [11, 14]: 50
- Plant response rating, Radish, Wild [11, 15]: 60
- Plant response rating (scale of 0 to 100), Radish, Wild ([11]; Preemergence, 31 g ai/ha): 65
- Plant response rating (scale of 0 to 100), Radish, Wild ([11]; Preemergence, 62 g ai/ha): 60
- Plant response rating, Radish, Wild [11, 16]: 60
- Plant response rating, Radish, Wild [11, 17]: 100
- Plant response rating, Radish, Wild [11, 18]: 20
- Kochia plant response rating (kochia (Kochia scoparia); [13]): 90
- Plant response rating, Kochia (kochia (Kochia scoparia); [14]): 100
- Plant response rating, Kochia (kochia (Kochia scoparia); [15]): 100
- Plant response rating (scale of 0 to 100), Kochia (kochia (Kochia scoparia); Preemergence, 31 g ai/ha): 0
- Plant response rating (scale of 0 to 100), Kochia (kochia (Kochia scoparia); Preemergence, 62 g ai/ha): 15
- Plant response rating, Kochia (kochia (Kochia scoparia); [16]): 75
- Plant response rating, Kochia (kochia (Kochia scoparia); [17]): 100
- Plant response rating, Kochia (kochia (Kochia scoparia); [18]): 95
- Field Violet plant response rating [12, 13]: 95
- Plant response rating, Field Violet [12, 14]: 100
- Plant response rating, Field Violet [12, 15]: 100
- Plant response rating (scale of 0 to 100), Field Violet ([12]; Preemergence, 31 g ai/ha): 100
- Plant response rating (scale of 0 to 100), Field Violet ([12]; Preemergence, 62 g ai/ha): 90
- Plant response rating, Field Violet [12, 16]: 95
- Plant response rating, Field Violet [12, 17]: 100
- Plant response rating, Field Violet [12, 18]: 100
